Experimental data reported in patent EP2963103A1, “pH-sensitive nanocapsules” (Henkel AG & Co. KGaA, priority 2014, dated 2016).

What was measured:
[1] = Hansen-Parameter, δt^2 = δd^2 + δp^2 + δh^2
Excerpt: Damit die hydrophobe Verbindung effektiv verkapselt werden kann, ist es erforderlich, dass die Verbindung ausreichend hydrophob ist, so dass sie nicht mit dem aus den Monomeren gebildeten Polymer derart interagiert, dass sie dieses übermäßig quellen und dadurch für die Verbindung stärker permeabel werden lässt. Es ist daher bevorzugt, dass die mindestens eine hydrophobe Verbindung einen Hansen-Parameter δt von weniger als 20, insbesondere weniger als 19 hat; und/oder einen Hansen-Parameter δh von weniger als 10, insbesondere weniger als 6 hat.
Der Hansen-Parameter ist ein in der Polymerchemie weit verbreiteter Parameter zum Vergleich der Löslichkeit bzw. Mischbarkeit von verschiedenen Substanzen. Dieser Parameter wurde von Charles Hansen entwickelt, um die Löslichkeit eines Materials in einem anderen vorherzusagen. Dabei wird die Kohäsionsenergie einer Flüssigkeit betrachtet, welche in mindestens drei verschiedene Kräfte eingeteilt werden kann: (a) Dispersionskräfte zwischen den Molekülen δd, (b) Dipolare intermolekulare Kräfte zwischen den Molekülen δp und (c) Wasserstoffbrückenbindungen zwischen den Molekülen δh. Diese drei Parameter können zu einem Parameter δt zusammengefasst werden nach der Formel δt^2 = δd^2 + δp^2 + δh^2. Je ähnlicher der Hansen-Parameter von unterschiedlichen Materialien ist, desto besser sind diese ineinander mischbar.
Tabelle 3 gibt die Hansen-Parameter für die getesteten Riechstoffe an. Tabelle 3: Hansen-Parameter

[2] = Hansen-Parameter, cited from earlier work; for δp: dipolar forces; for δd: dispersion forces; for δh: hydrogen bonds
[3] = Encapsulation efficiency EEsc / solid content, gravimetric after freeze-drying; assay type: physicochemical; settings: fragrance encapsulated with Monomermischung S1
Excerpt: Der Feststoffgehalt (SC) wurde […] Proben bestimmt. Vorher wurden zwei verschiedene theoretische Feststoffgehalte berechnet. SC1 ohne die Masse des Riechstoffs und SC2 […] Bestimmung des […] und […] bei der Messung des Feststoffgehalts SC2 mitbestimmt. Unter […] bei Polymerisation kann durch den Vergleich des praktisch gemessenen Feststoffgehalts SC mit den oben genannten theoretischen Werten die Menge an […]. Der Anteil an […] zur Einsatzmenge bei […].: Encapsulation Efficiency) EEsc in Prozent angegeben. Der theoretisch berechneten Feststoffgehalt SC1 betrugt 14,3%. Die Angabe […] 1 zeigt, dass der Riechstoff eingeschlossen wurde und […]. Die […]. Die in den Beispielen 1 und 2 verwendete Monomermischung S1 wurde für die Verkapselung weiterer Riechstoffe verwendet und die […] oben […]. Die […]

Molecule	δt [1]	Verkapselungseffizienz EEsc [3]	δp [2]	δd [2]	δh [2]
CC(C)=CCCC(C)CC=O (centres unmarked) [Citronellal]	18,01	72%	5,9	16,2	5,2
CC(C)=CCCC(C)CCO (centres unmarked) [Citronellol]	19,97	25%	4,8	16,1	10,8
C=CC(C)CCCC(C)(C)O (centres unmarked) [Dihydromyrcenol]	19,72	4%	4,3	16	10,7
CC(C)=CCC/C(C)=C/CO [Geraniol]	20,25	0%			
CC1=CCC2CC1C2(C)C (stereo not drawn) [α-Pinen]		91%	4,3	15,6	0
C/C=C/C(=O)C1=C(C)CCCC1(C)C [β-Damascone]	18,84	72%	4,9	17,4	5,3
Ionon	18,94	46%	5,7	17,1	5,8

The next lines start with results.

δt [1]	Verkapselungseffizienz EEsc [3]	Molecule	δp [2]	δd [2]	δh [2]
18,49		CC/C=C\CC1=C(C)CCC1=O [Jasmone]	5,2	17	5,1
18,10	77%	CC(C=O)Cc1ccc(C(C)(C)C)cc1 (centres unmarked) [Lilial, 3-(4-tert-Butylphenyl)-2-methylpropanal]	2,3	17,3	4,8
24,09		OCCc1ccccc1 [Phenylethylalkohol]	7,6	18,8	13
18,94	52%	C/C=C\C(=O)C1C(C)=CCCC1(C)C (stereo not drawn) [α-Damascone]	5,7	17,1	5,8
	0%	Hexenol	6,7	16	13,4
